Values of other authors as cited in patent US11819485B2, “Levodopa fractionated dose composition and use” (AVION PHARMACEUTICALS, LLC, priority 2018, dated 2023).
Read-outs that look alike come from different tables or passages of the source.

Tests used:
[1] = not given; remark: listed apart in the source
[2] = steady intravenous dose, plasma LD kept within efficacy-with-no-MRCs range, as long as the infusion lasted

Compound: N[C@@H](Cc1ccc(O)c(O)c1)C(=O)O [LD, Levodopa]
- solubility in water: poorly soluble in water
- duration of effect of each LD dose ([1]; beginning of the disease, orally administered LD): 6 h
- duration of effect of each dose ([1]; early stages of the disease): approximately 6 hours
- duration of effect of each dose ([1]; ultimately, as PD progresses): about 1.5 hours
- antiparkinsonian effect and dyskinesias during infusion [2]: full antiparkinsonian effect (no wearing off) without any dyskinesias
